# In ChEMBL document CHEMBL3797052 (Eur J Med Chem, 2016):
# Tests used:
# Format in all cases: functional
# M14 = assay: Antiproliferative activity against human M14 cells assessed as cell growth at 10^-4 M after 48 hrs by sulforhodamine B assay; conditions: M14, 48 h, read-out: Activity
# [1] = Antiproliferative activity against human UO31 cells assessed as growth inhibition after 48 hrs by sulforhodamine B assay; conditions: UO-31, 48 h; for CC50: read-out: LC50 (the source's name)
# T47D [2] = assay: Antiproliferative activity against human T47D cells assessed as cell growth at 10^-4 M after 48 hrs by sulforhodamine B assay; conditions: read-out: Activity
# NCI-H522 = assay: Antiproliferative activity against human NCI-H522 cells assessed as cell growth at 10^-6 M after 48 hrs by sulforhodamine B assay; conditions: NCI-H522, 48 h, read-out: Activity
# MDA-MB-435 = assay: Antiproliferative activity against human MDA-MB-435 cells assessed as cell growth at 10^-4 M after 48 hrs by sulforhodamine B assay; conditions: MDA-MB-435, 48 h, read-out: Activity
# NCI-H322M = assay: Antiproliferative activity against human NCI-H322M cells assessed as cell growth at 10^-8 M after 48 hrs by sulforhodamine B assay; conditions: read-out: Activity
# EKVX [3] = assay: Antiproliferative activity against human EKVX cells assessed as cell growth at 10^-7 M after 48 hrs by sulforhodamine B assay; conditions: read-out: Activity
# [4] = Antiproliferative activity against human RXF393 cells assessed as cell growth at 10^-4 M after 48 hrs by sulforhodamine B assay; conditions: RXF 393, 48 h, read-out: Activity
# KM12 = assay: Antiproliferative activity against human KM12 cells assessed as growth inhibition after 48 hrs by sulforhodamine B assay; conditions: KM12, 48 h
# NCI-H23 = assay: Antiproliferative activity against human NCI-H23 cells assessed as cell growth at 10^-8 M after 48 hrs by sulforhodamine B assay; conditions: NCI-H23, 48 h, read-out: Activity
# [5] = Antiproliferative activity against human COLO205 cells assessed as cell growth at 10^-6 M after 48 hrs by sulforhodamine B assay; conditions: COLO 205, 48 h, read-out: Activity
# [6] = Antiproliferative activity against human COLO205 cells assessed as growth inhibition after 48 hrs by sulforhodamine B assay; conditions: COLO 205, 48 h; for CC50: read-out: LC50 (the source's name)
# T47D [7] = assay: Antiproliferative activity against human T47D cells assessed as growth inhibition after 48 hrs by sulforhodamine B assay; conditions: for CC50: read-out: LC50 (the source's name)
# [8] = Antiproliferative activity against human SNB19 cells assessed as cell growth at 10^-4 M after 48 hrs by sulforhodamine B assay; conditions: SNB-19, 48 h, read-out: Activity
# [9] = Antiproliferative activity against human SF268 cells assessed as cell growth at 10^-4 M after 48 hrs by sulforhodamine B assay; conditions: SF-268, 48 h, read-out: Activity
# [10] = Antiproliferative activity against human HCT15 cells assessed as growth inhibition after 48 hrs by sulforhodamine B assay; conditions: HCT-15, 48 h
# NCI-H460 [11] = assay: Antiproliferative activity against human NCI-H460 cells assessed as cell growth at 10^-4 M after 48 hrs by sulforhodamine B assay; conditions: NCI-H460, 48 h, read-out: Activity
# [12] = Antiproliferative activity against human HCC2998 cells assessed as growth inhibition after 48 hrs by sulforhodamine B assay; conditions: HCC 2998, 48 h; for CC50: read-out: LC50 (the source's name)
# NCI-H460 [13] = assay: Antiproliferative activity against human NCI-H460 cells assessed as growth inhibition after 48 hrs by sulforhodamine B assay; conditions: NCI-H460, 48 h
# [14] = Antiproliferative activity against human UACC62 cells assessed as cell growth at 10^-6 M after 48 hrs by sulforhodamine B assay; conditions: UACC-62, 48 h, read-out: Activity
# Malme-3M = assay: Antiproliferative activity against human MALME-3M cells assessed as cell growth at 10^-7 M after 48 hrs by sulforhodamine B assay; conditions: read-out: Activity
# [15] = Antiproliferative activity against human HCC2998 cells assessed as cell growth at 10^-4 M after 48 hrs by sulforhodamine B assay; conditions: HCC 2998, 48 h, read-out: Activity
# [16] = Antiproliferative activity against human TK10 cells assessed as cell growth at 10^-4 M after 48 hrs by sulforhodamine B assay; conditions: TK-10, 48 h, read-out: Activity
# HT-29 [17] = assay: Antiproliferative activity against human HT-29 cells assessed as cell growth at 10^-7 M after 48 hrs by sulforhodamine B assay; conditions: HT-29, 48 h, read-out: Activity
# [18] = Antiproliferative activity against human SF539 cells assessed as cell growth at 10^-4 M after 48 hrs by sulforhodamine B assay; conditions: SF-539, 48 h, read-out: Activity
# [19] = Antiproliferative activity against human SF268 cells assessed as cell growth at 10^-7 M after 48 hrs by sulforhodamine B assay; conditions: SF-268, 48 h, read-out: Activity
# [20] = Antiproliferative activity against human SF295 cells assessed as cell growth at 10^-8 M after 48 hrs by sulforhodamine B assay; conditions: SF-295, 48 h, read-out: Activity
# MDA-MB-231 = assay: Antiproliferative activity against human MDA-MB-231 cells assessed as cell growth at 10^-7 M after 48 hrs by sulforhodamine B assay; conditions: MDA-MB-231, 48 h, read-out: Activity
# HT-29 [21] = assay: Antiproliferative activity against human HT-29 cells assessed as cell growth at 10^-6 M after 48 hrs by sulforhodamine B assay; conditions: HT-29, 48 h, read-out: Activity
# [22] = Antiproliferative activity against human UO31 cells assessed as cell growth at 10^-7 M after 48 hrs by sulforhodamine B assay; conditions: UO-31, 48 h, read-out: Activity
# [23] = Antiproliferative activity against human UO31 cells assessed as cell growth at 10^-8 M after 48 hrs by sulforhodamine B assay; conditions: UO-31, 48 h, read-out: Activity
# [24] = Antiproliferative activity against human RPMI8226 cells assessed as cell growth at 10^-8 M after 48 hrs by sulforhodamine B assay; conditions: RPMI-8226, 48 h, read-out: Activity
# [25] = Antiproliferative activity against human SNB19 cells assessed as growth inhibition after 48 hrs by sulforhodamine B assay; conditions: SNB-19, 48 h
# [26] = Antiproliferative activity against human OVCAR8 cells assessed as cell growth at 10^-7 M after 48 hrs by sulforhodamine B assay; conditions: OVCAR-8, 48 h, read-out: Activity
# EKVX [27] = assay: Antiproliferative activity against human EKVX cells assessed as cell growth at 10^-4 M after 48 hrs by sulforhodamine B assay; conditions: read-out: Activity
# [28] = Antiproliferative activity against human SW620 cells assessed as cell growth at 10^-4 M after 48 hrs by sulforhodamine B assay; conditions: SW-620, 48 h, read-out: Activity
compound,measurement,setting,value
CNC(=O)c1cc(Oc2ccc3nc(NC(=O)Nc4ccc(Cl)c(Cl)c4)sc3c2)ccn1,growth at 100 µM,M14,-46%
same,GI50,[1],2.08 µM
same,TGI,[1],3.96 µM
same,CC50,[1],7.56 µM
same,growth at 100 µM,T47D [2],-21%
same,growth at 1 µM,NCI-H522,97%
same,growth at 100 µM,MDA-MB-435,-30%
same,growth at 0.01 µM,NCI-H322M,90%
same,growth at 0.1 µM,EKVX [3],93%
same,growth at 100 µM,[4],-85%
same,GI50,KM12,3 µM
same,LC50,KM12,> 100 µM
same,TGI,KM12,> 100 µM
same,growth at 0.01 µM,NCI-H23,95%
same,growth at 1 µM,[5],106%
same,GI50,[6],4.25 µM
same,TGI,[6],> 100 µM
same,CC50,[6],> 100 µM
same,GI50,T47D [7],2.65 µM
same,TGI,T47D [7],6.36 µM
same,CC50,T47D [7],> 100 µM
same,growth at 100 µM,[8],-74%
same,growth at 100 µM,[9],-57%
same,GI50,[10],3.71 µM
same,LC50,[10],> 100 µM
same,TGI,[10],> 100 µM
same,growth at 100 µM,NCI-H460 [11],-17%
same,GI50,[12],5.04 µM
same,TGI,[12],> 100 µM
same,CC50,[12],> 100 µM
same,GI50,NCI-H460 [13],2.43 µM
same,LC50 (concentration killing 50% of cells),NCI-H460 [13],> 100 µM
same,TGI,NCI-H460 [13],5.32 µM
same,growth at 1 µM,[14],85%
same,growth at 0.1 µM,Malme-3M,82%
same,growth at 100 µM,[15],37%
same,growth at 100 µM,[16],-14%
same,growth at 0.1 µM,HT-29 [17],105%
same,growth at 100 µM,[18],-72%
same,growth at 0.1 µM,[19],99%
same,growth at 0.01 µM,[20],86%
same,growth at 0.1 µM,MDA-MB-231,97%
same,growth at 1 µM,HT-29 [21],106%
same,growth at 0.1 µM,[22],100%
same,growth at 0.01 µM,[23],86%
same,growth at 0.01 µM,[24],96%
same,GI50,[25],1.99 µM
same,LC50 (50% lethal concentration),[25],7.95 µM
same,TGI,[25],3.98 µM
same,growth at 0.1 µM,[26],101%
same,growth at 100 µM,EKVX [27],23%
same,growth at 100 µM,[28],48%
CNC(=O)c1cc(Oc2ccc3nc(NC(=O)Nc4cc(C(F)(F)F)cc(C(F)(F)F)c4)sc3c2)ccn1,growth at 100 µM,M14,-73%
same,GI50,[1],1.26 µM
same,TGI,[1],2.68 µM
same,CC50,[1],5.71 µM
same,growth at 100 µM,T47D [2],-60%
same,growth at 1 µM,NCI-H522,32%
same,growth at 100 µM,MDA-MB-435,-80%
same,growth at 0.01 µM,NCI-H322M,95%
same,growth at 0.1 µM,EKVX [3],92%
same,growth at 100 µM,[4],-70%
same,GI50,KM12,0.444 µM
same,LC50,KM12,7.96 µM
same,TGI,KM12,2 µM
same,growth at 0.01 µM,NCI-H23,93%
same,growth at 1 µM,[5],46%
same,GI50,[6],0.822 µM
same,TGI,[6],2.32 µM
same,CC50,[6],5.82 µM
same,GI50,T47D [7],0.479 µM
same,TGI,T47D [7],2.3 µM
same,CC50,T47D [7],8.47 µM
same,growth at 100 µM,[8],-45%
same,growth at 100 µM,[9],-91%
same,GI50,[10],1.5 µM
same,LC50,[10],7.32 µM
same,TGI,[10],3.31 µM
same,growth at 100 µM,NCI-H460 [11],-71%
same,GI50,[12],1.33 µM
same,TGI,[12],3.23 µM
same,CC50,[12],7.85 µM
same,GI50,NCI-H460 [13],1.23 µM
same,LC50 (concentration killing 50% of cells),NCI-H460 [13],6.6 µM
same,TGI,NCI-H460 [13],2.85 µM
same,growth at 1 µM,[14],37%
same,growth at 0.1 µM,Malme-3M,90%
same,growth at 100 µM,[15],-74%
same,growth at 100 µM,[16],-87%
same,growth at 0.1 µM,HT-29 [17],97%
same,growth at 100 µM,[18],-77%
same,growth at 0.1 µM,[19],90%
same,growth at 0.01 µM,[20],87%
same,growth at 0.1 µM,MDA-MB-231,98%
same,growth at 1 µM,HT-29 [21],61%
same,growth at 0.1 µM,[22],94%
same,growth at 0.01 µM,[23],95%
same,growth at 0.01 µM,[24],104%
same,GI50,[25],1.34 µM
same,LC50 (50% lethal concentration),[25],> 100 µM
same,TGI,[25],4.43 µM
same,growth at 0.1 µM,[26],102%
same,growth at 100 µM,EKVX [27],-56%
same,growth at 100 µM,[28],-71%
CNC(=O)c1cc(Oc2ccc3nc(NC(=O)Nc4ccc(Cl)c(C(F)(F)F)c4)sc3c2)ccn1,growth at 100 µM,M14,15%
same,GI50,[1],2.17 µM
same,growth at 100 µM,T47D [2],-16%
same,growth at 1 µM,NCI-H522,80%
same,growth at 100 µM,MDA-MB-435,40%
same,growth at 0.01 µM,NCI-H322M,101%
same,growth at 0.1 µM,EKVX [3],94%
same,growth at 100 µM,[4],-78%
same,GI50,KM12,3.41 µM
same,LC50,KM12,> 100 µM
same,TGI,KM12,> 100 µM
same,growth at 0.01 µM,NCI-H23,100%
same,growth at 1 µM,[5],86%
same,CC50,[6],> 100 µM
same,GI50,T47D [7],0.723 µM
same,TGI,T47D [7],3.65 µM
same,CC50,T47D [7],> 100 µM
same,growth at 100 µM,[8],-49%
same,growth at 100 µM,[9],-5%
same,GI50,[10],1.95 µM
same,LC50,[10],> 100 µM
same,growth at 100 µM,NCI-H460 [11],10%
same,TGI,[12],> 100 µM
same,CC50,[12],> 100 µM
same,GI50,NCI-H460 [13],1.79 µM
same,growth at 1 µM,[14],83%
same,growth at 0.1 µM,Malme-3M,98%
same,growth at 100 µM,[15],66%
same,growth at 100 µM,[16],-62%
same,growth at 0.1 µM,HT-29 [17],103%
same,growth at 100 µM,[18],-49%
same,growth at 0.1 µM,[19],101%
same,growth at 0.01 µM,[20],95%
same,growth at 0.1 µM,MDA-MB-231,109%
same,growth at 1 µM,HT-29 [21],91%
same,growth at 0.1 µM,[22],107%
same,growth at 0.01 µM,[23],100%
same,growth at 0.01 µM,[24],100%
same,GI50,[25],2.77 µM
same,LC50 (50% lethal concentration),[25],> 100 µM
same,TGI,[25],10.2 µM
same,growth at 0.1 µM,[26],108%
same,growth at 100 µM,EKVX [27],-32%
same,growth at 100 µM,[28],42%
